Source: patent US9018256B2, “Feed additive for animals of P-thymol, salt derivative or ester derivative thereof” (priority 2011, dated 2015)
Where two headings read alike, the source gives them in different places.

Experiments:
staphylococcus aureus = test: In-vitro antibacterial activity, tube double dilution method; format: cell-based
clostridium perfringens = format: cell-based
escherichia coli = test: In-vitro antibacterial activity, tube double dilution method; format: cell-based
salmonella gallinarum = format: cell-based
salmonella bacillus = format: cell-based
salmonella choleraesuis = test: In-vitro antibacterial activity, tube double dilution method; format: cell-based
[1] = test system: Lingnan yellow big chicken; test: Comparison of chicken growth promoting effects of p-thymol, thymol and carvacrol; format: in vivo; settings: 100 ppm in feed, 1 to 21-day-old chickens; for Total Feed Consumption / Total Weight Gain: 50 per group
[2] = test system: three-way cross weaned pigs; test: Growth promoting effect test on weaned pigs; format: in vivo, pig; settings: 100 ppm in feed, 30 days; for Total Feed Consumption / Total Weight Gain: 30 per group
Chemy Valley ducks = test: Growth promoting effect test on ducks; format: in vivo, duck; settings: 100 ppm in feed, 1 to 46-day-old ducks; for Total Feed Consumption / Total Weight Gain: 100 per group
black carps = test: Application in aquatic feed (black carp growth test); format: in vivo; settings: for average weight gain improved compared with the control group / feed conversion rate (FCR) / feed conversion rate reduced compared with the control group / final weight / weight gain: 100 ppm in feed, black carps, 8 weeks
[3] = Volatility comparison under reduced-pressure drying; settings: for weight remained after reduced-pressure drying: initial weight 10.0 g
[4] = Changes in chicken complete formula feed during preservation (gas chromatography); settings: 25-30° C., initial 100 ppm
Wistar rats = test: Rat oral LD50 measurement (improved Karber's method); format: in vivo
rats = settings: rat, in vivo; cited from earlier work
[5] = clostridium perfringens CAU0591
[6] = clostridium perfringens CAU0795
[7] = clostridium perfringens CAU0855
[8] = clostridium perfringens CAU0859
[9] = clostridium perfringens HNAU160
[10] = clostridium perfringens HNAU166
[11] = salmonella choleraesuis CEC19940141
[12] = salmonella choleraesuis CEC19940146
[13] = rat, oral, preliminary experiment

With `Cc1ccc(C(C)C)c(O)c1` [thymol, 5-methyl-2-isopropyl-phenol] the “Inhibiting Activity (minimum bacteria inhibiting concentration)” value (“Inhibiting Activity” below) (staphylococcus aureus; s. aureus CAU0804) was 500 µg/mL, the “Inhibiting Activity” value (staphylococcus aureus; s. aureus CAU0810) was 125 µg/mL and the “Inhibiting Activity” value (staphylococcus aureus; s. aureus CAU0837) was 250 µg/mL. The “Inhibiting Activity” value (staphylococcus aureus; s. aureus CAU0866) was 250 µg/mL, the “Inhibiting Activity” value (staphylococcus aureus; s. aureus CAU0868) was 250 µg/mL and the “Inhibiting Activity” value (staphylococcus aureus; s. aureus CAU0869) was 125 µg/mL. For the same molecule, the “Inhibiting Activity” value (staphylococcus aureus; s. aureus CAU0871) was 250 µg/mL, the “Inhibiting Activity” value (clostridium perfringens; [5]) was 250 µg/mL and the “Inhibiting Activity” value (clostridium perfringens; [6]) was 250 µg/mL. The “Inhibiting Activity” value (clostridium perfringens; [7]) was 250 µg/mL, the “Inhibiting Activity” value (clostridium perfringens; [8]) was 250 µg/mL and the “Inhibiting Activity” value (clostridium perfringens; [9]) was 500 µg/mL. For the same molecule, the “Inhibiting Activity” value (clostridium perfringens; [10]) was 250 µg/mL, the “Inhibiting Activity” value (escherichia coli; escherichia coli CAU0020) was 250 µg/mL and the “Inhibiting Activity” value (escherichia coli; escherichia coli CAU0053) was 250 µg/mL. For the same molecule, the “Inhibiting Activity” value (escherichia coli; escherichia coli CAU0147) was 250 µg/mL, the “Inhibiting Activity” value (escherichia coli; escherichia coli CAU0159) was 250 µg/mL and the “Inhibiting Activity” value (escherichia coli; escherichia coli CAU0195) was 250 µg/mL. The “Inhibiting Activity” value (salmonella gallinarum; salmonella gallinarum CAU0205) was 500 µg/mL, the “Inhibiting Activity” value (salmonella gallinarum; salmonella gallinarum CAU0206) was 250 µg/mL and the “Inhibiting Activity” value (salmonella gallinarum; salmonella gallinarum QAU0399) was 500 µg/mL. The “Inhibiting Activity” value (salmonella bacillus) was 250 µg/mL, the “Inhibiting Activity” value (salmonella choleraesuis; [11]) was 250 µg/mL and the “Inhibiting Activity” value (salmonella choleraesuis; [12]) was 250 µg/mL. The “Average Weight Gain” value [1] was 334.8 g, the “Feed Conversion Rate” value [1] was 1.756 and the “Survival Rate” value [1] was 100%. For the same molecule, the “feed conversion rate reduced compared with the control group” value (from here on “feed conversion rate reduced”) [1] was 0.026, the “Total Feed Consumption” value [1] was 29.40 kg and the “Total Weight Gain” value [1] was 16.74 kg. The “Feed Conversion Rate” value [2] was 2.324, the “Survival Rate” value [2] was 100% and the “feed conversion rate reduced” value [2] was 0.097. For the same molecule, the “Total Feed Consumption” value [2] was 796.3 kg, the “Total Weight Gain” value [2] was 342.6 kg and the “Feed Conversion Rate” value (Chemy Valley ducks) was 2.726. The “Survival Rate” value (Chemy Valley ducks) was 100%, the “feed conversion rate reduced” value (Chemy Valley ducks) was 0.062 and the “Total Feed Consumption” value (Chemy Valley ducks) was 940.7 kg. The “Total Weight Gain” value (Chemy Valley ducks) was 345.1 kg, the “average weight gain improved compared with the control group” value (black carps) was 4.53% and the “feed conversion rate (FCR)” value (black carps) was 1.44 ± 0.08. For the same molecule, the “feed conversion rate reduced” value (black carps) was 3.36%, the final weight (black carps) was 601.58 ± 28.02 g and the weight gain (black carps) was 139.29 ± 7.37%. For the same molecule, the “weight remained after reduced-pressure drying” value ([3]; 50° C., 1 hour) was 6.12 g, the “weight remained after reduced-pressure drying” value ([3]; 70° C., 1 hour) was 1.02 g and the “weight remained after reduced-pressure drying” value ([3]; 90° C., 1 hour) was 0 g. For the same molecule, the volatilized part ([3]; reduced-pressure drying 70° C., 1 hour) was 89.8%, the “concentration measured after extraction from the complete formula feed” value (“concentration measured after extraction” below) ([4]; 1 day) was 100.4 ppm and the “concentration measured after extraction” value ([4]; 15 days) was 90.2 ppm. For the same molecule, the “concentration measured after extraction” value ([4]; 30 days) was 78.9 ppm, the “concentration measured after extraction” value ([4]; 45 days) was 63.7 ppm and the “concentration measured after extraction” value ([4]; 60 days) was 49.7 ppm.

For `Cc1ccc(C(C)C)cc1O` [carvacrol, 2-methyl-5-isopropyl-phenol], the “Toxicity Judgment” value (Wistar rats; rat oral LD50 grading) was “relative”, the LD50 (Wistar rats; rat, oral, observed 7 days) was 6400 mg/kg weight and the “Dm (dose causing 100% death)” value (Wistar rats; [13]) was 1800 mg/kg weight. The “Dn (dose causing 0% death)” value (Wistar rats; [13]) was 400 mg/kg weight, the “Inhibiting Activity” value (staphylococcus aureus; s. aureus CAU0804) was 500 µg/mL and the “Inhibiting Activity” value (staphylococcus aureus; s. aureus CAU0810) was 250 µg/mL. For the same molecule, the “Inhibiting Activity” value (staphylococcus aureus; s. aureus CAU0837) was 250 µg/mL, the “Inhibiting Activity” value (staphylococcus aureus; s. aureus CAU0866) was 250 µg/mL and the “Inhibiting Activity” value (staphylococcus aureus; s. aureus CAU0868) was 250 µg/mL. For the same molecule, the “Inhibiting Activity” value (staphylococcus aureus; s. aureus CAU0869) was 250 µg/mL, the “Inhibiting Activity” value (staphylococcus aureus; s. aureus CAU0871) was 250 µg/mL and the “Inhibiting Activity” value (clostridium perfringens; [5]) was 500 µg/mL. For the same molecule, the “Inhibiting Activity” value (clostridium perfringens; [6]) was 250 µg/mL, the “Inhibiting Activity” value (clostridium perfringens; [7]) was 500 µg/mL and the “Inhibiting Activity” value (clostridium perfringens; [8]) was 500 µg/mL. For the same molecule, the “Inhibiting Activity” value (clostridium perfringens; [9]) was 500 µg/mL, the “Inhibiting Activity” value (clostridium perfringens; [10]) was 250 µg/mL and the “Inhibiting Activity” value (escherichia coli; escherichia coli CAU0020) was 250 µg/mL. For the same molecule, the “Inhibiting Activity” value (escherichia coli; escherichia coli CAU0053) was 500 µg/mL, the “Inhibiting Activity” value (escherichia coli; escherichia coli CAU0147) was 250 µg/mL and the “Inhibiting Activity” value (escherichia coli; escherichia coli CAU0159) was 250 µg/mL. The “Inhibiting Activity” value (escherichia coli; escherichia coli CAU0195) was 500 µg/mL, the “Inhibiting Activity” value (salmonella gallinarum; salmonella gallinarum CAU0205) was 250 µg/mL and the “Inhibiting Activity” value (salmonella gallinarum; salmonella gallinarum CAU0206) was 500 µg/mL. The “Inhibiting Activity” value (salmonella gallinarum; salmonella gallinarum QAU0399) was 500 µg/mL, the “Inhibiting Activity” value (salmonella bacillus) was 250 µg/mL and the “Inhibiting Activity” value (salmonella choleraesuis; [11]) was 500 µg/mL. For the same molecule, the “Inhibiting Activity” value (salmonella choleraesuis; [12]) was 250 µg/mL, the “Average Weight Gain” value [1] was 332.9 g and the “Feed Conversion Rate” value [1] was 1.761. The “Survival Rate” value [1] was 100%, the “feed conversion rate reduced” value [1] was 0.021 and the “relative weight gain rate improved compared with the control group” value (“relative weight gain rate improved” for short) [1] was 3.19%. For the same molecule, the “Total Feed Consumption” value [1] was 29.32 kg, the “Total Weight Gain” value [1] was 16.65 kg and the “Relative Weight Gain Rate” value ([1]; control = 100) was 103.19%. For the same molecule, the “Feed Conversion Rate” value [2] was 2.336, the “Survival Rate” value [2] was 100% and the “feed conversion rate reduced” value [2] was 0.085. For the same molecule, the “relative weight gain rate improved” value [2] was 4.69%, the “Total Feed Consumption” value [2] was 798.1 kg and the “Total Weight Gain” value [2] was 341.7 kg. For the same molecule, the “Relative Weight Gain Rate” value ([2]; control = 100) was 104.69%, the “Feed Conversion Rate” value (Chemy Valley ducks) was 2.739 and the “Survival Rate” value (Chemy Valley ducks) was 100%. The “feed conversion rate reduced” value (Chemy Valley ducks) was 0.049, the “relative weight gain rate improved” value (Chemy Valley ducks) was 2.51% and the “Total Feed Consumption” value (Chemy Valley ducks) was 928.3 kg. For the same molecule, the “Total Weight Gain” value (Chemy Valley ducks) was 338.9 kg, the “Relative Weight Gain Rate” value (Chemy Valley ducks; control = 100) was 102.51% and the “average weight gain improved compared with the control group” value (black carps) was 3.52%. For the same molecule, the “feed conversion rate (FCR)” value (black carps) was 1.45 ± 0.06, the “feed conversion rate reduced” value (black carps) was 2.68% and the final weight (black carps) was 598.08 ± 27.11 g. The weight gain (black carps) was 138.0 ± 7.78%, the “survival rate (SR)” value (black carps; in vivo) was 100% and the “oral median lethal dose (LD50) of rats” value (rats) was 810 mg/kg weight. For the same molecule, the “weight remained after reduced-pressure drying” value ([3]; 50° C., 1 hour) was 4.84 g, the “weight remained after reduced-pressure drying” value ([3]; 70° C., 1 hour) was 0 g and the “weight remained after reduced-pressure drying” value ([3]; 90° C., 1 hour) was 0 g. The “volatilization (in words)” value ([3]; reduced-pressure drying within 1 hour at 70° C. and over) was “completely volatilized”, the “concentration measured after extraction” value ([4]; 1 day) was 99.6 ppm and the “concentration measured after extraction” value ([4]; 15 days) was 87.7 ppm. For the same molecule, the “concentration measured after extraction” value ([4]; 30 days) was 73.1 ppm, the “concentration measured after extraction” value ([4]; 45 days) was 58.5 ppm and the “concentration measured after extraction” value ([4]; 60 days) was 42.6 ppm.
